Experimental data as given in patent US20120315281A1, “TREATMENT OF RENAL INJURY” (THE PENN STATE RESEARCH FOUNDATION, priority 2011, published 2012).

What was measured:
Assay type in all cases: in vivo, mouse
[1] = tested on: arginase 2 mRNA; test: Kidney arginase 2 mRNA expression by RT-PCR in Ins2^Akita mice; conditions: whole kidney RNA, Ins2^Akita mice at 14 weeks of age; normalized to GAPDH, relative to control; FIG. 5
Protocol: FIGS. 5A and 5B show the effect of arginase inhibition on arginase 2 mRNA expression in Ins2^Akita mice. Real-time polymerase chain reaction (RT-PCR) was performed on whole mouse kidney total RNA isolated at 14 weeks of age. […] In FIG. 5B, expression of arginase 2 mRNA was normalized to GAPDH and data were calculated as expression relative to control.
Total RNA was extracted from mouse kidneys using RNeasy Mini Kit (Qiagen, Gumbh, Hilden, Germany). Single-strand cDNA was synthesized using iScript cDNA Synthesis Kits (Bio-Rad, Hercules, Calif.) for two-step real-time polymerase chain reaction (RT-PCR). Gene-specific primers for ARG1 and ARG2 were designed using Beacon Designer Probe/Primer Design Software (Premier Biosoft International, Palo Alto, Calif.). Specificity of the PCR products was verified by melting curve analysis. Quantitative real-time PCR was performed using a Bio-Rad CFX96 system (Hercules, Calif.). Reactions were performed in duplicate, and threshold cycle numbers were averaged. Samples were calculated with normalization to GAPDH.
RT-PCR was performed on whole mouse kidney total RNA isolated at 14 weeks of age. […] In FIG. 5B, expression of arginase 2 mRNA was normalized to GAPDH and data were calculated as expression relative to control.

[2] = tested on: Ins2^Akita and their wild type littermate mice; test: Glomerular macrophage recruitment, Mac-2 immunohistochemistry, Ins2^Akita experiment; conditions: 14 weeks of age
Protocol: FIGS. 2A-2D show the effect of arginase inhibition on macrophage recruitment in Ins2^Akita mice using immunohistochemistry.
Immunohistochemistry for macrophages was performed in mice using rat anti-mouse Mac-2 monoclonal antibody; clone M3/38 (Cedarlane, Burlington, N.C., US) on paraffin sections. Sections were incubated with primary antibody (50 μg/ml) followed by a biotinylated goat IgG anti-rat (Vector Laboratories, Burlingame, Calif.) secondary antibody according to the manufacturer's protocol. Sections were viewed using an Olympus BX51 microscope and DP71 digital camera using MicroSuite Basic 2.6 imaging software. Images were taken with 100× (oil) objective with a total magnification of 1000×. The number of glomerular macrophages were counted in twenty glomeruli per section (number of macrophages in glomeruli divided by the number of glomeruli) in blinded fashion under 40× magnification and averaged.
To determine whether arginases are critical for kidney macrophage infiltration in diabetic nephropathy, the distribution and quantitation of macrophages in kidneys by immunohistochemistry (Mac-2 positive macrophages) were analyzed. […]

[3] = tested on: Ins2^Akita and their wild type littermate mice; test: Blood urea nitrogen (BUN) in Ins2^Akita and wild type littermate mice; conditions: BEC 2.3 mg/kg/day 9 weeks, 14-week of age, mean ± SEM
Protocol: (§1) Experiments were conducted in male Ins2^Akita and their wild type (WT) littermate mice (DBA background; Jackson Laboratories) starting at 5 weeks of age until 14 weeks of age and were approved by the Pennsylvania State University College of Medicine Institutional Animal Care and Use Committee (PSU IACUC). The Ins2^Akita mice were recommended by the Animal Models of Diabetes Complications Consortium as an optimal model of diabetic nephropathy, and the mice developed hyperglycemia at 3 weeks of age. […]
(§2) BEC, a selective arginase antagonist (2.3 mg/kg/day, Cayman Chemical, Ann Arbor, Mich., USA), or vehicle (phosphate-buffered saline) was administered by continuous subcutaneous infusion for 9 weeks (in Ins2^Akita experiments) or for 6 wks (in STZ DBA mice experiments) via a mini-osmotic pump (Alzet; Durect Corporation, Palo Alto, Calif., USA) as described in CIRCULATION RESEARCH, 102(8):923-32, Apr. […] The condition of mice and body weight were monitored daily following the pump implantation.
(§3) Urinary albumin excretion (UAE) was measured by ELISA using Albuwell M (Exocell, Philadelphia, Pa.) as described previously. Blood urea nitrogen (BUN) was measured using (VITROS DT60II chemistry slides; Ortho-Clinical Diagnostics, Rochester, N.Y.). Body composition was determined using LF90 Minispec Time Domain Nuclear Magnetic Resonance Spectrometer (Bruker Optics, Billerica Mass.). […]

[4] = tested on: STZ-induced diabetic mice (DBA background); test: 24-hr urinary albumin excretion in STZ-induced diabetic mice (DBA background); conditions: BEC 2.3 mg/kg/day 6 weeks, vs vehicle-treated diabetic, FIG. 6
Protocol: After an overnight fast, animals were given multiple low doses of vehicle or STZ (Sigma, St. Louis, Mo.; 50 mg/kg body wt dissolved in lactated Ringers solution) via IP injection. Mice were treated with the arginase-specific inhibitor BEC (2.3 mg/kg/day) or vehicle via osmotic minipump for 6 weeks. Urine was collected for measurement of UAE after 6 weeks. Data are presented as mean±SEM.
Experiments were conducted in male Ins2^Akita and their wild type (WT) littermate mice (DBA background; Jackson Laboratories) starting at 5 weeks of age until 14 weeks of age and were approved by the Pennsylvania State University College of Medicine Institutional Animal Care and Use Committee (PSU IACUC). […]
as §2
Urinary albumin excretion (UAE) was measured by ELISA using Albuwell M (Exocell, Philadelphia, Pa.) as described previously. […]

[5] = tested on: STZ-induced diabetic mice; test: Glomerular macrophage recruitment, Mac-2 staining, STZ-induced diabetic mice; conditions: arginase inhibitor 6 weeks, p<0.0001 vs vehicle-treated diabetic
Protocol: as §1, §2
Immunohistochemistry for macrophages was performed in mice using rat anti-mouse Mac-2 monoclonal antibody; clone M3/38 (Cedarlane, Burlington, N.C., US) on paraffin sections. […] The number of glomerular macrophages were counted in twenty glomeruli per section (number of macrophages in glomeruli divided by the number of glomeruli) in blinded fashion under 40× magnification and averaged.

[6] = tested on: Ins2^Akita and their wild type littermate mice; test: Characteristics of Ins2^Akita and wild type littermate mice (glucose, body weight, kidney weight, body composition) with or without arginase inhibitor; conditions: BEC 2.3 mg/kg/day 9 weeks, 14-week of age, mean ± SEM
Protocol: Experiments were conducted in male Ins2^Akita and their wild type (WT) littermate mice (DBA background; Jackson Laboratories) starting at 5 weeks of age until 14 weeks of age and were approved by the Pennsylvania State University College of Medicine Institutional Animal Care and Use Committee (PSU IACUC). The Ins2^Akita mice were recommended by the Animal Models of Diabetes Complications Consortium as an optimal model of diabetic nephropathy, and the mice developed hyperglycemia at 3 weeks of age. Additional experiments were conducted in male 6-week-old mice (DBA background; Jackson Laboratories), arginase-2 (Arg2) wild type […] mice on C57B1/6 background weighing 20-22 g and were approved by the PSU IACUC. After an overnight fast, animals were given multiple low doses of vehicle or STZ (Sigma, St. Louis, Mo.; 50 mg/kg body wt dissolved in lactated Ringers solution) via intraperitoneal injection.
BEC, a selective arginase antagonist (2.3 mg/kg/day, Cayman Chemical, Ann Arbor, Mich., USA), or vehicle (phosphate-buffered saline) was administered by continuous subcutaneous infusion for 9 weeks (in Ins2^Akita experiments) or for 6 wks (in STZ DBA mice experiments) via a mini-osmotic pump (Alzet; Durect Corporation, Palo Alto, Calif., USA) as described in CIRCULATION RESEARCH, 102(8):923-32, Apr. 25, 2008. The osmotic pump was incubated in phosphate buffer saline (PBS) for 60-h at 37° C. prior to implantation and was implanted dorsally between shoulders. The condition of mice and body weight were monitored daily following the pump implantation.
as §3

[7] = tested on: eNOS deficient and their wild type (WT) littermate mice; test: Urinary albumin excretion in STZ-diabetic eNOS deficient and wild type littermate mice; conditions: BEC 2.3 mg/kg/day s.c. infusion 6 weeks, FIG. 14
Protocol: Experiments were conducted using multiple low doses of STZ (50 mg/kg body weight for 5 days). Arginase inhibition using BEC (2.3 mg/kg/day) or vehicle was administered by continuous subcutaneous infusion for 6 weeks via a mini-osmotic pump. Data is shown for 6 weeks after STZ-induced diabetes.
Urinary albumin excretion (UAE) was measured by ELISA using Albuwell M (Exocell, Philadelphia, Pa.) as described previously. Blood urea nitrogen (BUN) was measured using (VITROS DT60II chemistry slides; Ortho-Clinical Diagnostics, Rochester, N.Y.). Body composition was determined using LF90 Minispec Time Domain Nuclear Magnetic Resonance Spectrometer (Bruker Optics, Billerica Mass.).
eNOS deficient mice are recommended by the Animal Models of Diabetes Complications Consortium (AMDCC) as an optimal model of diabetic nephropathy. Experiments were conducted in male 6-week-old eNOS deficient and their wild type (WT) littermate mice using multiple low doses of STZ (50 mg/kg body weight for 5 days). Arginase inhibition using BEC (2.3 mg/kg/day) or vehicle was administered by continuous subcutaneous infusion for 6 weeks via a mini-osmotic pump. Renal function was monitored throughout the study.

[8] = tested on: STZ-induced diabetic mice (DBA background); test: Renal histological changes, PAS staining, STZ-induced diabetic mice (DBA background)
Description: Sections were stained with Periodic acid-Schiff (PAS) and all glomeruli were examined at 40×. Images were taken with 100× (oil) objective with a total magnification of 1000×. […] Adjacent tubular basement membranes stain PAS positive as well.
Kidneys from mice were fixed in 4% paraformaldehyde, embedded in paraffin, and 3-μm sections were cut. Sections were stained with Periodic acid-Schiff (PAS) stain and all glomeruli were examined at 40× (TKC) in a masked fashion. All images were obtained with an Olympus BX51 microscope and DP71 digital camera using MicroSuite Basic 2.6 imaging software. Images were taken with 100× (oil) objective with a total magnification of 1000×. Semiquantitative scores (0-4+) were assigned based on the masked reading, as previously described. Each glomerulus on a single section was graded from 0 to 4+, where 0 represents no lesion, and 1, 2, 3, and 4+ represent mesangial matrix expansion or sclerosis, involving […] of the glomerular tuft area, respectively.

[9] = tested on: Ins2^Akita mice; test: 24-hr urinary albumin excretion (UAE) in Ins2^Akita mice; conditions: BEC 2.3 mg/kg/day 9 weeks, at 14 weeks of age, vs vehicle, FIG. 1
Protocol: The Ins2^Akita and their wild type (WT) littermate mice were treated with the arginase-specific inhibitor S-(2-Boronoethyl)-L-cysteine (BEC) (2.3 mg/kg/day) or vehicle via osmotic minipump for 9 weeks. Urine was collected for measurement of UAE before treatment (at 5 weeks of age) and after treatment (at 14 weeks of age). In FIG. 1, the open bars are vehicle treated groups and filled bars are arginase inhibitor treated groups. Data are presented as mean±SEM. […]
as §2, §3

[10] = control (wild type littermate) mice

SMILES: N[C@@H](CSCCB(O)O)C(=O)O [BEC, S-(2-Boronoethyl)-L-cysteine]
- increase in arginase 2 mRNA expression [1]: ~1.5 fold
- glomerular macrophage recruitment (Mac-2 positive) ([2]; Ins2^Akita mice treated with arginase inhibitor, p<0.0001 vs vehicle-treated Ins2^Akita, FIG. 2D): 0.9±0.14 macrophages/glomerulus
- glomerular macrophage recruitment (Mac-2 positive) ([2]; control mice treated with arginase inhibitor, FIG. 2C): 0.29±0.03 macrophages/glomerulus
- BUN ([3]; Ins2^Akita mice): 28 ± 3
- BUN [3, 10]: 28 ± 3
- albuminuria (24-hr UAE) [4]: significantly reduced
- glomerular macrophage recruitment (Mac-2 staining) [5]: 1.2±0.06 macrophages/glomerulus
- Kidney weight ([6]; Ins2^Akita mice): 269 ± 10 mg
- KW/BW (kidney weight to body weight ratio) [6, 10]: 8.1 ± 0.1 mg/g
- Kidney weight [6, 10]: 262 ± 4 mg
- albuminuria (UAE) ([7]; diabetic WT mice (STZ), vs vehicle): significantly reduced
- UAE ([7]; diabetic eNOS deficient mice (STZ), vs vehicle treated diabetic mice): failed to reduce
- PAS positive material, share of the mesangial matrix ([8]; representative PAS section from arginase inhibitor treated STZ mouse, FIG. 7C): < 25%
- glomerular changes (PAS, glomerular cellularity and mesangial expansion) score ([8]; semiquantitative score 0-4+, STZ-induced diabetic mice after 6 weeks, p<0.05 vs vehicle-treated STZ): 1.6±0.08
- Albuminuria (urinary albumin excretion) [9]: significantly reduced
